≈ marks a conversion by molar mass, not a printed value.
Experiments:
Staphylococcus aureus [1] = assay: Antibacterial activity against Staphylococcus aureus ATCC 29213 after 16 hrs by agar dilution method; format: functional; conditions: ATCC 29213, 16 h
Staphylococcus aureus [2] = assay: Antibacterial activity against methicillin-resistant Staphylococcus aureus after 16 hrs by agar dilution method; format: functional
[3] = tested on: Staphylococcus epidermidis; assay: Antibacterial activity against methicillin-resistant Staphylococcus epidermidis after 16 hrs by agar dilution method; format: functional
Streptococcus pneumoniae [4] = assay: Antibacterial activity against penicillin-resistant Streptococcus pneumoniae after 16 hrs by agar dilution method; format: functional
Enterococcus faecalis [5] = assay: Antibacterial activity against Enterococcus faecalis after 16 hrs by agar dilution method; format: functional
Staphylococcus aureus [6] = assay: Antibacterial activity against linezolid-resistant Staphylococcus aureus after 16 hrs by agar dilution method; format: functional
[7] = tested on: Staphylococcus epidermidis; assay: Antibacterial activity against linezolid-resistant Staphylococcus epidermidis after 16 hrs by agar dilution method; format: functional
Enterococcus faecalis [8] = assay: Antibacterial activity against linezolid-resistant Enterococcus faecalis after 16 hrs by agar dilution method; format: functional
Enterococcus faecium [9] = assay: Antibacterial activity against linezolid-resistant Enterococcus faecium after 16 hrs by agar dilution method; format: functional
Staphylococcus aureus [10] = assay: Antibacterial activity against Staphylococcus aureus ATCC 19636 infected in mouse systemic infection model administered orally 1 hour after infection measured 48 hrs of post-treatment; format: functional; conditions: ATCC 19636, po
Staphylococcus aureus [11] = assay: Antibacterial activity against methicillin-resistant Staphylococcus aureus ATCC 33591 infected in NSA mouse neutropenic model administered orally 1 hour after infection measured 48 hrs post-treatment; format: functional; conditions: ATCC 33591, po
Staphylococcus aureus [12] = assay: Antibacterial activity against Linezolid-resistant Staphylococcus aureus after 16 hrs by agar dilution method relative to Linezolid; format: functional
[13] = tested on: Staphylococcus epidermidis; assay: Antibacterial activity against Linezolid-resistant Staphylococcus epidermidis after 16 hrs by agar dilution method relative to Linezolid; format: functional
Enterococcus faecalis [14] = assay: Antibacterial activity against Linezolid-resistant Enterococcus faecalis after 16 hrs by agar dilution method relative to Linezolid; format: functional
Enterococcus faecium [15] = assay: Antibacterial activity against Linezolid-resistant Enterococcus faecium after 16 hrs by agar dilution method relative to Linezolid; format: functional
Staphylococcus aureus [16] = assay: Antibacterial activity against Staphylococcus aureus ATCC 19636 infected in mouse systemic infection model administered orally 1 hour after infection measured 48 hrs post-treatment relative to Linezolid; format: functional
Staphylococcus aureus [17] = assay: Antibacterial activity against methicillin-resistant Staphylococcus aureus ATCC 33591 infected in NSA mouse neutropenic model administered orally 1 hour after infection measured 48 hrs post-treatment relative to Linezolid; format: functional
[18] = Cmax in Sprague-Dawley rat at 15 mg/kg, po by LC-MS analysis; format: ADME, organism-based; design: dose 15 mg/kg, route oral; conditions: in vivo
[19] = Tmax in Sprague-Dawley rat at 15 mg/kg, po by LC-MS analysis; format: ADME, organism-based; design: dose 15 mg/kg, route oral; conditions: in vivo
[20] = Half life in Sprague-Dawley rat at 15 mg/kg, po by LC-MS analysis; format: ADME, organism-based; design: dose 15 mg/kg, route oral; conditions: in vivo
[21] = AUC (0 to infinity) in Sprague-Dawley rat at 15 mg/kg, po by LC-MS analysis; format: ADME, organism-based; design: time infinity, dose 15 mg/kg, route oral; conditions: plasma
[22] = Clearance in Sprague-Dawley rat at 15 mg/kg, po by LC-MS analysis; format: ADME, organism-based; design: dose 15 mg/kg, route oral; conditions: in vivo
[23] = Oral bioavailability in Sprague-Dawley rat at 15 mg/kg by LC-MS analysis; format: ADME, organism-based; conditions: in vivo
[24] = Cmax in Sprague-Dawley rat at 15 mg/kg, iv by LC-MS analysis; format: ADME, organism-based; design: dose 15 mg/kg, route intravenous; conditions: in vivo
[25] = Clearance in Sprague-Dawley rat at 15 mg/kg, iv by LC-MS analysis; format: ADME, organism-based; design: dose 15 mg/kg, route intravenous; conditions: in vivo
[26] = Cmax in Sprague-Dawley rat at 50 mg/kg, po by LC-MS analysis; format: ADME, organism-based; design: dose 50 mg/kg, route oral; conditions: in vivo
[27] = Tmax in Sprague-Dawley rat at 50 mg/kg, po by LC-MS analysis; format: ADME, organism-based; design: dose 50 mg/kg, route oral; conditions: in vivo
[28] = Half life in Sprague-Dawley rat at 50 mg/kg, po by LC-MS analysis; format: ADME, organism-based; design: dose 50 mg/kg, route oral; conditions: in vivo
[29] = AUC (0 to infinity) in Sprague-Dawley rat at 50 mg/kg, po by LC-MS analysis; format: ADME, organism-based; design: time infinity, dose 50 mg/kg, route oral; conditions: plasma
[30] = Oral bioavailability in Sprague-Dawley rat at 50 mg/kg by LC-MS analysis; format: ADME, organism-based; conditions: in vivo
[31] = Half life in Sprague-Dawley rat at 10 mg/kg, iv by LC-MS analysis; format: ADME, organism-based; design: dose 10 mg/kg, route intravenous; conditions: in vivo
[32] = AUC (0 to infinity) in Sprague-Dawley rat at 10 mg/kg, iv by LC-MS analysis; format: ADME, organism-based; design: time infinity, dose 10 mg/kg, route intravenous; conditions: plasma
[33] = Clearance in Sprague-Dawley rat at 10 mg/kg, iv by LC-MS analysis; format: ADME, organism-based; design: dose 10 mg/kg, route intravenous; conditions: in vivo
Staphylococcus aureus [34] = assay: Antibacterial activity against Staphylococcus aureus ATCC 29213 after 16 hrs by agar dilution method relative to Linezolid; format: functional
[35] = tested on: Staphylococcus epidermidis; assay: Antibacterial activity against methicillin-resistant Staphylococcus epidermidis after 16 hrs by agar dilution method relative to Linezolid; format: functional
Streptococcus pneumoniae [36] = assay: Antibacterial activity against penicillin-resistant Streptococcus pneumoniae after 16 hrs by agar dilution method relative to Linezolid; format: functional
Enterococcus faecalis [37] = assay: Antibacterial activity against Enterococcus faecalis after 16 hrs by agar dilution method relative to Linezolid; format: functional

Structure (SMILES) | MIC (Staphylococcus aureus [1]) | MIC (Staphylococcus aureus [2]) | MIC [3] | MIC (Streptococcus pneumoniae [4]) | MIC (Enterococcus faecalis [5]) | MIC (Staphylococcus aureus [6]) | MIC [7] | MIC (Enterococcus faecalis [8]) | MIC (Enterococcus faecium [9]) | ED50 (Staphylococcus aureus [10]) | ED50 (Staphylococcus aureus [11]) | fold change (FC) (Staphylococcus aureus [12]) | fold change (FC) [13] | fold change (FC) (Enterococcus faecalis [14]) | fold change (FC) (Enterococcus faecium [15]) | also measured
CC(=O)NC[C@@H]1OC(=O)N2c3ccc(-c4ccc(C#N)nc4)cc3OC[C@@H]12 | 0.125 µg/mL (≈ 0.343 µM) | 0.25 µg/mL (≈ 0.686 µM) | 0.25 µg/mL (≈ 0.686 µM) | 0.25 µg/mL (≈ 0.686 µM) | 0.5 µg/mL (≈ 1.37 µM) | 2 µg/mL (≈ 5.49 µM) | 1 µg/mL (≈ 2.74 µM) | 1 µg/mL (≈ 2.74 µM) | 0.5 µg/mL (≈ 1.37 µM) | 2.5 mg/kg | < 5 mg/kg | 8 | 8 | 8 | 8 | fold change (FC) (Staphylococcus aureus [16]): 4; fold change (FC) (Staphylococcus aureus [17]): 3; Cmax [18]: 5000 ng/mL; Tmax [19]: 4 h; half-life [20]: 5.5 h; AUC(0-inf) [21]: 66 µg·h/mL; CL/F [22]: 3.82 mL/min/kg; bioavailability [23]: 81%; Cmax [24]: 7000 ng/mL; clearance [25]: 3.07 mL/min/kg
CC(=O)NC[C@@H]1OC(=O)N2c3ccc(-c4ccc(C(C)=O)nc4)cc3OC[C@@H]12 | 0.5 µg/mL (≈ 1.31 µM) | 0.25 µg/mL (≈ 0.656 µM) | 0.25 µg/mL (≈ 0.656 µM) | 0.5 µg/mL (≈ 1.31 µM) | 0.5 µg/mL (≈ 1.31 µM) | 2 µg/mL (≈ 5.24 µM) | 1 µg/mL (≈ 2.62 µM) | 1 µg/mL (≈ 2.62 µM) | 1 µg/mL (≈ 2.62 µM) | > 20 mg/kg |  | 8 | 8 | 8 | 8 | 
COc1ccc(-c2ccc3c(c2)OC[C@H]2[C@H](CNC(C)=O)OC(=O)N32)cn1 | 0.25 µg/mL (≈ 0.677 µM) | 0.5 µg/mL (≈ 1.35 µM) | 0.5 µg/mL (≈ 1.35 µM) | 0.5 µg/mL (≈ 1.35 µM) | 0.5 µg/mL (≈ 1.35 µM) | 4 µg/mL (≈ 10.8 µM) | 2 µg/mL (≈ 5.41 µM) | 2 µg/mL (≈ 5.41 µM) | 1 µg/mL (≈ 2.71 µM) |  |  |  |  |  |  | 
CC(=O)NC[C@@H]1OC(=O)N2c3ccc(-c4ccc(-c5nnnn5C)nc4)cc3OC[C@@H]12 | 0.5 µg/mL (≈ 1.19 µM) | 0.25 µg/mL (≈ 0.593 µM) | 0.25 µg/mL (≈ 0.593 µM) | 0.25 µg/mL (≈ 0.593 µM) | 0.5 µg/mL (≈ 1.19 µM) | 4 µg/mL (≈ 9.49 µM) | 2 µg/mL (≈ 4.75 µM) | 1 µg/mL (≈ 2.37 µM) | 1 µg/mL (≈ 2.37 µM) |  |  |  |  |  |  | 
CC(=O)NC[C@@H]1OC(=O)N2c3ccc(-c4ccc(C5(C#N)CC5)nc4)cc3OC[C@@H]12 | 0.5 µg/mL (≈ 1.24 µM) | 0.5 µg/mL (≈ 1.24 µM) | 0.5 µg/mL (≈ 1.24 µM) | 0.5 µg/mL (≈ 1.24 µM) | 0.5 µg/mL (≈ 1.24 µM) | 8 µg/mL (≈ 19.8 µM) | 1 µg/mL (≈ 2.47 µM) | 1 µg/mL (≈ 2.47 µM) | 1 µg/mL (≈ 2.47 µM) |  |  |  |  |  |  | 
CC(=O)NC[C@@H]1OC(=O)N2c3ccc(-c4ccc(C5(N)CC5)nc4)cc3OC[C@@H]12 | 0.25 µg/mL (≈ 0.634 µM) | 0.25 µg/mL (≈ 0.634 µM) | 0.25 µg/mL (≈ 0.634 µM) | 0.5 µg/mL (≈ 1.27 µM) | 0.5 µg/mL (≈ 1.27 µM) | 16 µg/mL (≈ 40.6 µM) | 4 µg/mL (≈ 10.1 µM) | 4 µg/mL (≈ 10.1 µM) | 4 µg/mL (≈ 10.1 µM) |  |  |  |  |  |  | 
CC(=O)NC[C@@H]1OC(=O)N2c3ccc(-c4ccc(C#CCO)nc4)cc3OC[C@@H]12 | 0.5 µg/mL (≈ 1.27 µM) | 0.25 µg/mL (≈ 0.635 µM) | 0.25 µg/mL (≈ 0.635 µM) | 0.5 µg/mL (≈ 1.27 µM) | 0.5 µg/mL (≈ 1.27 µM) | 4 µg/mL (≈ 10.2 µM) | 1 µg/mL (≈ 2.54 µM) | 1 µg/mL (≈ 2.54 µM) | 1 µg/mL (≈ 2.54 µM) |  |  |  |  |  |  | 
CC(=O)NC[C@@H]1OC(=O)N2c3ccc(-c4ccc(N5CCOC5=O)nc4)cc3OC[C@@H]12 | 0.25 µg/mL (≈ 0.589 µM) | 0.125 µg/mL (≈ 0.295 µM) | 0.125 µg/mL (≈ 0.295 µM) | 0.25 µg/mL (≈ 0.589 µM) | 0.5 µg/mL (≈ 1.18 µM) | 2 µg/mL (≈ 4.71 µM) | 1 µg/mL (≈ 2.36 µM) | 1 µg/mL (≈ 2.36 µM) | 0.5 µg/mL (≈ 1.18 µM) | 11.3 mg/kg | 9.5 mg/kg | 8 | 8 | 8 | 8 | Cmax [26]: 9000 ng/mL; Tmax [27]: 6 h; half-life [28]: 4.7 h; AUC(0-inf) [29]: 123 µg·h/mL; bioavailability [30]: 18%; half-life [31]: 3.7 h; AUC(0-inf) [32]: 136 µg·h/mL; clearance [33]: 1.28 mL/min/kg; fold change (FC) (Staphylococcus aureus [34]): 4; fold change (FC) [35]: 4; fold change (FC) (Streptococcus pneumoniae [36]): 4; fold change (FC) (Enterococcus faecalis [37]): 4
CC(=O)NC[C@H]1CN(c2ccc(N3CCOCC3)c(F)c2)C(=O)O1 [LINEZOLID] | 1 µg/mL (≈ 2.96 µM) | 1 µg/mL (≈ 2.96 µM) | 1 µg/mL (≈ 2.96 µM) |  |  | > 16 µg/mL | 16 µg/mL (≈ 47.4 µM) |  | 8 µg/mL (≈ 23.7 µM) | 9.5 mg/kg | 14.1 mg/kg |  |  |  |  | 

From ChEMBL document CHEMBL1914384, “Design, synthesis, and structure-activity relationship studies of highly potent novel benzoxazinyl-oxazolidinone antibacterial agents” (J Med Chem, 2011)
